Data set [1] relates to female Aedes aegypti mosquitoes. Description: In vitro membrane feeder repellency assay, probing of treated collagen membranes (Example 2). Type of data set: in vivo. The note with it: 20% DEET in ethanol, 25 μL on collagen membrane; twenty minutes; average ± SE, n = 5. The text has this:
(§1) A laboratory trial was required to evaluate the repellency of 1% Nootkatone against female Aedes aegypti, Culex quinquefasciatus, and Anopheles quadrimaculatus mosquitoes using an in vitro method.
(§2) Female adult laboratory reared Aedes aegypti, Culex quinquefasciatus, and Anopheles quadrimaculatus mosquitoes (susceptible) were obtained from Benzon Research in Carlisle, Pa. 250 mosquitoes were used per replicate (5 replicates per test, per species). Adult mosquitoes were 3-8 days old.
(§3) Nootkatone was diluted in ethanol and acetone (note that Nootkatone diluted in acetone was not tested against An. quadrimaculatus). A positive control consisting of 20% DEET in ethanol was prepared using stock solutions. Negative controls consisted of no treatment, and ethanol-only treatment.
(§4) The treatments were applied directly to prepared collagen membranes by pipetting 25 μL of the appropriate substance onto a membrane and spreading it evenly with the tip of the pipette.
(§5) Exposure container. A 30.5 cm×30.5 cm×30.5 cm rigid plastic frame supported by four, 4 cm high legs, with a sleeved entry on one side and a sliding door on the bottom.
(§6) Membrane feeder. Five wells (3 cm in diameter×8 mm in depth) in line on a hollow plastic block (6 cm wide×22 cm long×3 cm deep), which fits through the sliding door in the bottom of the exposure container. Hoses attached to each side of the block circulate heated water that is pumped from a water bath. The sliding door in the bottom of the exposure container covers and uncovers the wells in the membrane feeder, allowing mosquitoes to access the wells.
(§7) Test set-up. The membrane feeder was connected to a heated water bath, and warm water passed through the feeder via a circulating pump so that the wells were warmed to 89-95° F. Seventy-two (72) mg of ATP (disodium salt) were added to 26 mL of warmed citrated bovine blood, which was poured into the wells until they were completely full.
(§8) The collagen membranes were placed on vacuum greased wax paper for treatment. They were then treated as described above and left for five minutes to dry. After they dried, the membranes were placed over each of the wells (using vacuum grease as an adhesive), completely covering the blood.
(§9) Exposure to mosquitoes. The mosquitoes were released into the exposure container just prior to exposure to the membranes. The exposure container was then placed on the membrane feeder and the sliding door opened, allowing the mosquitoes to access the wells. The number of mosquitoes probing each membrane was recorded every two minutes for twenty minutes.
(§10) The above procedures were repeated until five replicates were completed. A new batch of 250 female mosquitoes and fresh blood were used for each replicate, and the wells were cleaned in between replicates. The position of the treatments was rotated for each replicate, so that each treatment was tested on each of the five wells.
(§11) Percent repellency was calculated for each replicate using the total number of probes with the following formula:
(§12) [formula] • where C=the total number of probes on the untreated well • and T=the total number of probes on the treated well
(§13) Average percent repellency and standard error were then calculated across all five replicates. Shapiro-Wilks tests were conducted to determine the normality of the data, based on total number of probes per replicate. Depending on normality, student t-tests (with concurrent F-tests for variance) or Mann-Whitney tests were then used to determine significance between the treatments.

Data set [2] concerns female Anopheles quadrimaculatus mosquitoes. Described as above. In kind it is in vivo. The conditions noted are these: 20% DEET in ethanol, 25 μL on collagen membrane; twenty minutes; average ± SE, n = 5.
Excerpt: as §1, §2, §3, §4, §5, §6, §7, §8, §9, §10, §11, §12, §13

Data set [3] has as its system female Culex quinquefasciatus mosquitoes. The description is as above. The conditions noted are these: 20% DEET in ethanol, 25 μL on collagen membrane; twenty minutes; average ± SE, n = 5. In kind it is in vivo.
Excerpt: as §1, §2, §3, §4, §5, §6, §7, §8, §9, §10, §11, §12, §13

The conditions of data set [4]: humans; compound found in bergamot and citrus essential oils; cited from earlier work.

Consider `CCN(CC)C(=O)c1cccc(C)c1` [DEET, N,N-Diethyl-meta-toluamide, reference compound], for which the Percent repellency is on record as 99.4 ± 0.6% in data set [1], 100.0 ± 0.0% in data set [2] and 95.9 ± 4.1% in data set [3].
For `COc1c2ccoc2cc2oc(=O)ccc12` [Bergapten, 5-methoxypsoralen], the Phototoxicity result in data set [4] is “causes phototoxicity in humans”.

The values above are taken from patent US11800867B2, “Methods of repelling biting arthropods, reducing pathogen spread and treating arthropod infestation” (priority 2016, dated 2023).
